Source: US20250387375A1, “SOFALCONE DERIVATIVES AND MEDICAL USE THEREOF” (KAOHSIUNG MEDICAL UNIVERSITY, priority 2024, published 2025)

Legend:
TxA2 receptor = target: T1, TxA2 receptor (Homo sapiens, UniProt P21731); assay: Competitive antagonism of U46619-induced platelet aggregation (U46619 concentration-response curves); assay type: cell-based
T1 construct: The blood samples were centrifuged to obtain platelets, and residual plasma was removed by washing to prepare platelet suspension; endogenous in cells; host or cells: washed human platelets from healthy donors
T1 sequence (P21731 1-343): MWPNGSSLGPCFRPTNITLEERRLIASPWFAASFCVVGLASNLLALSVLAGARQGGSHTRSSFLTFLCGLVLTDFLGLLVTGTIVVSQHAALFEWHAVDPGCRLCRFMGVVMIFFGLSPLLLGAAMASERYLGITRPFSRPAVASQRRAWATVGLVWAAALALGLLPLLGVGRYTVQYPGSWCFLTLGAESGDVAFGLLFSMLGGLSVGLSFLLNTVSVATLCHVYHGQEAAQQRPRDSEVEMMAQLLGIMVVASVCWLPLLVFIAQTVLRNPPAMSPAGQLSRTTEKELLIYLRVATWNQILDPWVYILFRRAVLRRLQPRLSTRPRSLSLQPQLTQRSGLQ
Procedure: After human platelet suspension was pretreated with dimethyl sulfoxide (DMSO) or sofalcone (SFC) (FIG. 5A), sofalcone derivative 3 (FIG. 5B), and sofalcone derivative 30 (FIG. 5C), different concentrations of U46619 (0.1-10 μM) were added to stimulate platelet aggregation reaction. Data are presented as mean±standard error of the mean (n=5).
(§1) Blood samples were collected from healthy donors, and acid-citrate-dextrose (ACD) solution was used as an anticoagulant. The blood samples were centrifuged to obtain platelets, and residual plasma was removed by washing to prepare platelet suspension.
In the experimental method, a platelet aggregometer (Chrono-Log Co., Havertown, PA, USA) was used for tests. The compound to be tested was added to the platelet suspension and reacted for 3 minutes at 37° C. with stirring (1200 rpm). Then, platelet stimulator U46619 or collagen was added to initiate platelet aggregation, and the test time was 5 minutes. The principle of the platelet aggregation test was: when platelets were stimulated to induce aggregation reaction, the light transmission of the platelet suspension would increase; by calculating changes in light transmission of the platelet suspension before and after being stimulated, the percentage of platelet aggregation could be obtained.
After pretreating human platelet suspensions with dimethylsulfoxide (DMSO), sofalcone (20 μM and 50 μM), and sofalcone derivatives 3 or 30 (0.2 μM and 0.5 μM, respectively), different concentrations of U46619 (0.1-10 μM) were added to stimulate platelet aggregation.

human recombinant COX2 = target: T2, human recombinant COX2 (Homo sapiens, UniProt P35354); assay: COX2 enzyme activity assay; assay type: biochemical
T2 construct: purchased Cayman Chemical Company
T2 sequence (P35354 18-604): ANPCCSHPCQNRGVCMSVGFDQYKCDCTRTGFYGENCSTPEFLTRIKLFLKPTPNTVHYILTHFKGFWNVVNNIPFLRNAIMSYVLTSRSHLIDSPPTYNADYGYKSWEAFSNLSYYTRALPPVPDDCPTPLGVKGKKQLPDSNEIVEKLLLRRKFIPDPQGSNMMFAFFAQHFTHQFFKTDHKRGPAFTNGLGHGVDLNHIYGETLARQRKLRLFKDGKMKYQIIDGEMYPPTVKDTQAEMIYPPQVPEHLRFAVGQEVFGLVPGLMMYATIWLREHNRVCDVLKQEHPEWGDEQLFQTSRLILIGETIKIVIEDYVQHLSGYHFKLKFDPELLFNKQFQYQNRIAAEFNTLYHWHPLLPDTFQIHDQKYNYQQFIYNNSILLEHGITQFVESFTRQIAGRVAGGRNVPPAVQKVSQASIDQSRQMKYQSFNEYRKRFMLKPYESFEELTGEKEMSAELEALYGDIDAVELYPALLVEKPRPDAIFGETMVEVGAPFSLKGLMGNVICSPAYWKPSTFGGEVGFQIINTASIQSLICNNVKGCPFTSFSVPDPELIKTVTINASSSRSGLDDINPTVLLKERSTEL
Procedure: (§2) COX1 and COX2 enzyme activities were analyzed by using a human COX inhibitor screening assay kit (Cayman Chemical Company). After allowing the to-be-tested compound, human recombinant COX1 or COX2 enzyme and heme to stand at 37° C. for 15 minutes, AA (10 μM) was added to react for 2 minutes. Then, stannous chloride was added to reduce PGH2, the product of the above COX reaction, to PGF2α. Finally, the PGF2α level in the sample was measured by using enzyme immunoassay, and the inhibition percentage was calculated.

human recombinant COX1 = target: T3, human recombinant COX1 (Homo sapiens, UniProt P23219); assay: COX1 enzyme activity assay; assay type: biochemical
T3 construct: purchased Cayman Chemical Company
Procedure: as §2

[1] = test system: human platelet suspension (platelet aggregation caused by collagen); assay: Platelet aggregation reaction test, collagen-induced; assay type: cell-based; conditions: read-out: Collagen IC 50
Summary of the method: (§3)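 Washed platelets from healthy human donors (ACD-anticoagulated blood) were preincubated with compound for 3 min at 37 °C under 1200 rpm stirring. Aggregation was then triggered with U46619 or collagen and followed for 5 min by light transmission aggregometry. Percent aggregation came from the change in transmission before and after stimulation.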

[2] = test system: TxB2 formation in human platelet suspensions; assay: Measurement of platelet TxB2 level after arachidonic acid; assay type: cell-based; conditions: AA 100 μM; human platelet suspension
Procedure: (§4) FIGS. 6A and 6B show the effect of sofalcone and its derivatives on TxB2 and PGE2 productions induced by arachidonic acid (AA). […] After human platelet suspension was pretreated with dimethyl sulfoxide (DMSO) or sofalcone (SFC), sofalcone derivative 3, and sofalcone derivative 30, arachidonic acid (100 μM) was added to stimulate the productions of arachidonic acid metabolites TxB2 and PGE2. Data are presented as mean±standard error of the mean (n>5). Compared with the control group, *P<0.05, **P<0.01, ***P<0.001. ASA: Aspirin.
as §1
(§5) The compound to be tested was added to the platelet suspension and reacted for 3 minutes at 37° C. under stirring (1200 rpm), then arachidonic acid (AA) (100 μM) was added to react for 4 minutes, and finally EDTA (5 mM) was added to terminate the reaction. The above sample was centrifuged at 13,000 rpm for 1 minute at 4° C. and the supernatant was collected. The concentrations of TxB2 and PGE2 in the supernatant were measured respectively using enzyme immunoassay kits (TxB2 ELISA kit and PGE2 ELISA kit; Cayman Chemical Company).

[3] = test system: human platelet suspension (platelet aggregation caused by TxA2 agonist U46619); assay: Platelet aggregation reaction test, U46619-induced; assay type: cell-based
Summary of the method: as §3

[4] = test system: PGE2 formation in human platelet suspensions; assay: Measurement of platelet PGE2 level after arachidonic acid; assay type: cell-based; conditions: AA 100 μM; human platelet suspension
Procedure: as §4, §1, §5

[5] = test system: FeCl3-induced carotid artery thrombosis; assay: Ferric chloride-induced carotid artery thrombosis in mice; assay type: in vivo, BALB/c mice; conditions: oral gavage, single dose 25 mg/kg
Procedure: Mice were orally administered by gavage with sofalcone (SFC, once daily for 4 days), derivative 17, or aspirin (ASA) (single administration only). The mice are then treated with ferric chloride solution to induce carotid artery thrombosis, and an ultrasound imaging system was used to monitor the time required for the thrombus to block the carotid artery (occlusion time). Data are presented as mean±standard […] error of the mean (n≥6). Compared with the control group, *P<0.05, ***P<0.001. In this experiment, a ferric chloride-induced arterial injury was used to evaluate the antithrombotic effect of the to-be-tested compound. The to-be-tested compound was orally administered by gavage to BALB/c mice aged approximately 6-8 weeks. Then, the mice were anesthetized with isoflurane, the right carotid artery was exposed through surgery, and filter paper (2×4 mm^2) containing 8.5% ferric chloride was attached to the right carotid artery for 3 minutes. After removing the filter paper, remaining ferric chloride was wiped off with cotton balls soaked with physiological saline, and an ultrasonic imaging system (VEVO 2100 system, VisualSonics) equipped with a Doppler flow probe (MS400, 18-38 MHz) was used to monitor the blood flow of the right carotid artery. The occlusion time was determined when the blood flow completely stopped for at least 1 minute. If the occlusion time was longer than 30 minutes, it was considered the end point of the experiment.

[6] = test system: normal hemostatic function (tail bleeding); assay: Mouse bleeding test (tail bleeding time); assay type: in vivo, BALB/c mice; conditions: mice, oral gavage, single dose 25 mg/kg
Procedure: Mice were orally administered by gavage with sofalcone (SFC, once daily for 4 days), derivative 17, or aspirin (ASA) (single administration only). Then the mouse's tail was transected and the tail bleeding time was recorded. Data are presented as mean±standard error of the mean (n≥6). Compared with the control group, ***P<0.001. n.s.: No significant difference. In the present invention, the effect of the to-be-tested compound on normal hemostasis was evaluated by docking off the tail ends of the mice to cause bleeding. The to-be-tested compound was orally administered to BALB/c mice aged approximately 6-8 weeks by gavage. Then, the mice were anesthetized with isoflurane, and 2 mm of the distal end of their tails were excised. The tails of the mice were immersed in physiological saline at 37° C., and the bleeding time was observed. The determination of bleeding time was: the time required from the time the mouse tail was cut off until the bleeding completely stopped.

[7] = pretreatment 0.2 μM and 0.5 μM, U46619 0.1-10 μM

T3 sequence (P23219 24-599): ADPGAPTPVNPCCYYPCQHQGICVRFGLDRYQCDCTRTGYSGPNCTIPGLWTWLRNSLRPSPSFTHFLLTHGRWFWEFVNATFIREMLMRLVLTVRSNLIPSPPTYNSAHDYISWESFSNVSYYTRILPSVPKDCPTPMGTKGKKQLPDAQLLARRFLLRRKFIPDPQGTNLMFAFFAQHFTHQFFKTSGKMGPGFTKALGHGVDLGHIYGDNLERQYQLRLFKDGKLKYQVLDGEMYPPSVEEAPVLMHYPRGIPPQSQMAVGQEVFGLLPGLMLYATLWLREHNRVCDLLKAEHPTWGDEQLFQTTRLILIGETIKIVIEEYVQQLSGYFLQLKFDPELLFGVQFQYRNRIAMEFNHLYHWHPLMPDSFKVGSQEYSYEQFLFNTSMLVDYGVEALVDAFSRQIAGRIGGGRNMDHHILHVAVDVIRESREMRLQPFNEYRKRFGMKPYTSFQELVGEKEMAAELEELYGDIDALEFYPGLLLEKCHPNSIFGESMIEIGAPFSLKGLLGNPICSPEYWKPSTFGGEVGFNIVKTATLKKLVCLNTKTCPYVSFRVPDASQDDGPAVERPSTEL

## O=C(O)CCCOc1ccccc1C(=O)/C=C/c1ccc(F)cc1 [Compound 3]
TxA2 receptor; concluded from parallel right shift of U46619 curves
  mode of action at TxA2 receptor: competitively antagonize
TxA2 receptor; [7]
  U46619 concentration-platelet aggregation response curve: shifted parallelly to the right
  maximum level of platelet aggregation: not significantly affected
Human recombinant COX2; 10 μM
  COX2 (Inhibition rate %): 26.7%
Human recombinant COX2; 100 μM
  COX2 (Inhibition rate %): 48.6%
Human recombinant COX1; 1 μM
  COX1 (Inhibition rate %): 19.1%
Human recombinant COX1; 10 μM
  COX1 (Inhibition rate %): 61.6%
Human recombinant COX1; 100 μM
  COX1 (Inhibition rate %): 89.8%
Human recombinant COX1; human recombinant COX1 and COX2, 1-100 μM
  COX1 versus COX2 inhibitory effect: better inhibitory effect on COX1
[1]
  IC50: 30 nM
[2]
  formation of TxB2 induced by arachidonic acid: inhibited
[3]
  IC50: 70 nM
[4]
  formation of PGE2 induced by arachidonic acid: inhibited

## CC(=O)Oc1ccccc1C(=O)O [Aspirin, reference compound]
Human recombinant COX1; read-out: COX1 (Inhibition rate %)
  inhibition at 200 µM: 26%
[5]
  carotid artery occlusion time: prolonged
[1]
  IC50: 79000 nM
[2]
  formation of TxB2 induced by arachidonic acid: inhibited
[3]
  IC50: > 200000 nM
[4]
  formation of PGE2 induced by arachidonic acid: inhibited
[6]
  tail bleeding time: significantly prolonged
